Measured values taken from patent US5691382A, “Inhibition of TNF production with matrix metaloproteinase inhibitors” (British Biotech Pharmaceuticals Limited, priority 1992, dated 1997).

Assays:
[1] = tested on: TNF α; experiment: inhibition of endotoxin (LPS) induced TNF production in vivo in anaesthetised rats; design: species or system Male CD rats; conditions: rat, 10 mg.kg^-1 intraperitoneally, 1 hour prior to LPS
Procedure: Test compounds were assessed for their ability to inhibit release of endotoxin induced TNF production in vivo.
(§1) Male CD rats (Charles River, UK) weighing between 300 g-400 g were anaesthetised with an intra-peritoneal injection of a mixture of 62.5 mg.kg^-1 thiopental and 22.5 mg.kg^-1 sodium pentobarbitone (Thiopental, Sigma Chemical Co., UK; Sodium pentobarbitone (Sagatal), May and Baker., UK). The trachea was exposed and cannulated to allow spontaneous respiration through a patent airway. The left jugular vein was exposed and cannulated for the administration of LPS. The right femoral artery was exposed and cannulated for withdrawal of blood samples. Blood samples (1 ml) were removed 5 minutes prior to bolus administration of either LPS (E. coil serotype 0111:b4, Difco Laboratories, USA) or saline (NaCL 0.9% w/v) and at intervals of 1 hour and 2 hours after LPS. Removed blood was replaced with equal amounts of saline.
The peak of TNF release was at the 1 hour timepoint. TNF levels were expressed in units/ml where 1 unit is the equivalent of 1 pg of mouse TNF α.
(§2) Rat serum TNF levels were measured using a mouse TNF α reference standard. The commercial ELISA kits were from Genzyme.
Test compounds were administered intraperitoneally to anaesthetised rats at a dose of 10 mg.kg^-1, 1 hour prior to LPS administration.
The results are expressed as the % inhibition of maximal TNF elevation relative to control: […]

[2] = tested on: TNFα release from human monocytic cell line, U937; experiment: inhibition of TNFα release from PMA-stimulated human monocytic cell line U937 (18 h, ELISA); assay type: cell-based; conditions: U-937, PMA 50 nM, U937 cells, 18 hours at 37° C., reported by Group A/B/C, read-out: IC50 (concentration which inhibits the release of TNFα by 50% relative to the control culture)
Procedure: Metalloproteinase inhibitors can prevent the release of TNF from PMA-stimulated human monocytic cell line U937.
The ability of representative compounds, which are inhibitors of metalloproteinases, to inhibit the release of TNF was investigated. The assay is based on the ability of phorbol myristate acetate (PMA) to stimulate the release of TNFα from a human monocytic cell line, U937.
U937 cells cultured in RPMI 1640 medium +5% foetal calf serum were centrifuged at 1000×g for 5 minutes and then resuspended in medium at 2×10^6 /ml. 1 ml of cell suspension was aliquoted into individual wells of 24-well plates. Test compounds were dissolved in dimethyl sulphoxide (DMSO) at a stock concentration of 100 mM, then diluted to 50×the final required concentration with RPMI 1640 medium. 20 μl of the diluted compounds were added to U937 cells in duplicate wells. TNFα release was stimulated by addition of PMA to the cells at a final concentration of 50 nM. Appropriate control cultures were set up in duplicate. The plates were incubated for 18 hours at 37° C., 5% CO2, then centrifuged at 1000 ×g for 5 minutes. A specific ELISA for TNFα obtained from British Bio-technology Products Limited, Abingdon, England was used to measure TNFα levels in the culture supernatants according to the protocol supplied.
The average concentration of test compound which inhibits the release of TNFα by 50% relative to the control culture was assessed as greater than 90 μM, in the range 10 μM-90 μM, or less than 10 μM.

[3] = tested on: TNF α; experiment: variation: infusion of compound before LPS, inhibition of TNF elevation in vivo; design: species or system Male CD rats; conditions: rat, infusion 1 mg/kg/hr, 15 minutes prior to LPS 500 μg.kg^-1, for 2 hours
Procedure: as §1, §2

Row | Compound | % Inhibition of Maximal TNF Elevation relative to control [1] [%] | IC50 [2] [µM] | inhibition of maximal TNF elevation relative to control [3] [%]
1 | CNC(=O)[C@H](Cc1ccc(NC(C)=O)cc1)NC(=O)[C@@H](CC(=O)NO)CC(C)C [Compound 23, 3R-(2-(4-acetamidophenyl)-1S-methylcarbamoyl-ethylcarbamoyl)-5-methyl-hexanohydroxamic acid] | 35 |  | 
2 | CNC(=O)[C@@H](NC(=O)[C@@H](CC(=O)NO)CC(C)C)C(C)(C)C [Compound 88, 3R-(2,2-dimethyl-1S-methylcarbamoyl-propylcarbamoyl)-5-methyl-hexanohydroxamic acid] | 66 |  | 
3 | CNC(=O)[C@H](Cc1ccc(OC)cc1)NC(=O)[C@H](CC(C)C)[C@H](C)C(=O)NO [Compound 1, 3R-(2-(4-methoxyphenyl)-1S-methylcarbamoyl-ethylcarbamoyl)-2S,5-dimethyl-hexanohydroxamic acid] | 0 | < 10 | 
4 | CC(C)C[C@H](CC(=O)NO)C(=O)N[C@@H](Cc1ccccc1)C(=O)NCc1cccnc1 [Compound 98, 3R-(2-phenyl-1S-[pyrid-3-ylmethylcarbamoyl]-ethylcarbamoyl)-5-methyl-hexanohydroxamic acid] | 28 |  | 
5 | COc1ccc(C[C@H](NC(=O)[C@@H](CC(=O)NO)CC(C)C)C(=O)N(C)C)cc1 [Compound 100, 3R-(2-(4-methoxyphenyl)-1S-dimethylcarbamoyl-ethylcarbamoyl)-5-methyl-hexanohydroxamic acid] |  | > 90 | 
6 | CC(C)C[C@H](CC(=O)NO)C(=O)NC1Cc2ccccc2NC1=O (stereo partly drawn) [Compound 101, 3R-(2-oxo-1,2,3,4-tetrahydro-quinoli-3-ylcarbamoyl)-5-methyl-hexanohydroxamic acid] |  | > 90 | 
7 | CNC(=O)[C@H](Cc1ccc(OC)cc1)NC(=O)[C@@H](CC(C)C)[C@H](C)C(=O)NO [Compound 69, 3S-(2(4-methoxyphenyl)-1S-methylcarbamoyl-ethylcarbamoyl)-2S,5-dimethyl-hexanohydroxamic acid] |  | 10 to 90 | 
8 | CNC(=O)[C@H](Cc1ccccc1)NC(=O)[C@H](CC(C)C)[C@H](CSc1ccccc1)C(=O)NO [Compound 2, 2S-(phenylsulfanylmethyl)-3R-(2-phenyl-1S-methylcarbamoyl-ethylcarbamoyl)-5-methyl-hexanohydroxamic acid] |  | < 10 | 
9 | CNC(=O)[C@H](Cc1ccccc1)NC(=O)[C@H](CC(C)C)[C@H](CS(=O)(=O)c1cccs1)C(=O)NO [Compound 99, 2S-(thien-2-ylsulfonylmethyl)-3R-(2-phenyl-1S-methylcarbamoyl-ethylcarbamoyl)-5-methyl-hexanohydroxamic acid] | 55 |  | 
10 | CNC(=O)[C@H](Cc1ccccc1)NC(=O)[C@H](CCc1ccccc1)CC(=O)NO [Compound 87, 3R-(2-phenyl-1S-methylcarbamoyl-ethylcarbamoyl)-5-phenyl-pentanohydroxamicacid] | 4 |  | 
11 | CNC(=O)[C@H](Cc1ccc(OCC(=O)O)cc1)NC(=O)[C@H](CC(C)C)[C@H](CSc1cccs1)C(=O)NO [Compound 29, 2S-(thien-2-ylsulphanylmethyl)-3R-(2-(4-carboxymethoxyphenyl)-1S-methylcarbamoyl-ethylcarbamoyl)-5-methyl-hexanohydroxamic acid] |  |  | 60
12 | CNC(=O)[C@H](Cc1ccc(OC)cc1)NC(=O)[C@@H](CC(=O)NO)CC(C)C [Compound 70, 3R-(2(4-methoxyphenyl)-1S-methylcarbamoyl-ethylcarbamoyl)-5-methyl-hexanohydroxamic acid] | 37 | 10 to 90 | 
13 | CNC(=O)[C@H](Cc1ccccc1)NC(=O)[C@H](CC(C)C)[C@H](CSc1cccs1)C(=O)NO [Compound 3, 2S-(thien-2-ylsulfanylmethyl)-3R-(2-phenyl-1S-methylcarbamoyl-ethylcarbamoyl)-5-methyl-hexanohydroxamic acid] |  | < 10 | 
14 | CC(C)C[C@H](CC(=O)NO)C(=O)N[C@@H](Cc1ccccc1)C(=O)NCCCN1CCCC1=O [Compound 74, 3R-(2-phenyl-1S-[2-oxo-pyrolid-1-yl]propylcarbamoyl-ethylcarbamoyl)-5-methyl-hexanohydroxamic acid] | 28 |  | 
15 | CCOC(=O)CNC(=O)[C@H](CC(C)C)NC(=O)[C@H](CC(C)C)[C@H](CCCCN1C(=O)c2ccccc2C1=O)C(=O)NO [Compound 93, 2S-(4-phthalimido-butyl)-3R-(3-methyl-1S-ethoxycarbonylmethylcarbamoyl-butylcarbamoyl)-5-methyl-hexanohydroxamic acid] | 43 |  | 
